Holding throughout (experiment): NCI-60 cell line screen, 48 h
The subject of experiment [1] is A549 NSCLC.
The test system of experiment [2] is 786-0 renal.
The subject of experiment [3] is HT29 colon.
Experiment [4] relates to M14 melanoma.
For experiment [5], the system named is NCI-H522 lung.
For experiment [6], the system named is HOP-92 NSCLC.
The subject of experiment [7] is MOLT-4 leukemia.
Experiment [8] relates to SF-539 CNS.
Experiment [9] deals with HCT-116 colon.
Experiment [10] deals with HOP-62 NSCLC.

“And” between values parts separate entries of the source, which are not always exact repeats. Identical values can stand only once.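 Values below derive from 48-hour exposures of cells grown in 96-well plates, with endpoints linearly interpolated between the two concentrations bracketing the appropriate inhibition level. Abbreviation: GI50, concentration required for 50% inhibition of growth. TGI marks complete inhibition of growth.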

Consider `NCCC(O)(P(=O)(O)O)P(=O)(O)O`, for which the GI50 in experiment [1], in experiment [2], in experiment [3], in [4], in [5] and in [6] was above 100 µM throughout. The GI50 in experiment [7], in experiment [8], in experiment [9] and in experiment [10] was above 100 µM throughout. Further, the TGI in experiment [1], in experiment [2], in experiment [3], in experiment [4], in experiment [5] and in [6] was above 100 µM each time. In addition, the TGI in experiment [7], in experiment [8], in experiment [9] and in [10] was above 100 µM each time.

Take `CC(=O)N=c1ccc2nc3c(cc(N)c4ccccc43)oc-2c1`: the GI50 in [1] is 1.08 µM; in experiment [2] it was 1.46 µM; in experiment [3] it was 2.09 µM; in experiment [4] it was 1.58 µM; in [5], 1.44 µM; in experiment [6], 1.4 µM. Also, the GI50 in [7] was 0.353 µM; in experiment [8], 1.63 µM; in experiment [9], 0.323 µM; in experiment [10] it was 0.573 µM. Further, the TGI in experiment [1] was determined as 3.42 µM; in experiment [2], 2.93 µM; in experiment [3], 4.62 µM; in [4] it was 3.86 µM; in [5], 3.47 µM; in experiment [6], 4.94 µM. In addition, the TGI in [7] is 5.26 µM; in experiment [8] it was 3.05 µM; in [9], 1.24 µM; in [10], 1.83 µM.

With `CCN(CC)C(=O)COc1ccc(Br)cc1Br`, the TGI in [1], in experiment [2], in [3], in experiment [4], in experiment [5] and in [6] was above 100 µM throughout. In addition, the TGI in experiment [7], in experiment [8], in experiment [9] and in experiment [10] was above 100 µM each time.

As to `COc1ccc(-c2ccc(C3CC(c4ccc(Cl)cc4)=NN3)o2)c([N+](=O)[O-])c1` (stereo not drawn), the GI50 in experiment [1], in experiment [2], in experiment [3], in experiment [4], in [5] and in experiment [6] was above 100 µM each time. The GI50 in [7], in experiment [8], in [9] and in experiment [10] was above 100 µM throughout. Besides, the TGI in [1], in experiment [2], in [3], in [4], in experiment [5] and in experiment [6] was above 100 µM in each case. The TGI in [7], in experiment [8], in experiment [9] and in experiment [10] was above 100 µM in each case.

On to `CCOC(=O)c1c(C(F)(F)F)n([O-])c2ccc(OC)cc2[n+]1=O`, for which the GI50 in [1] was 8.57 µM; in [2] it was 6.39 µM; in experiment [3], 7.89 µM; in experiment [4] it was 3.75 µM; in experiment [5] it was 6.52 µM; in experiment [6] it was 2.51 µM. Further, the GI50 in experiment [7] was 4 µM; in experiment [8], 7.97 µM; in [9] it was 4.13 µM; in experiment [10], 3.89 µM. Further, the TGI in experiment [1] is above 100 µM; in experiment [2] it was 49.5 µM; in [3] it was above 100 µM; in [4], 24.6 µM; in [5], 31 µM; in [6], 11.9 µM. The TGI in [7] was determined as 17.5 µM; in experiment [8], 27 µM; in [9], 18.3 µM; in experiment [10] it was 21.9 µM.

`O=C(COc1ccccc1)NS(=O)(=O)c1ccccc1`: the TGI in experiment [1], in [2], in experiment [3], in experiment [4], in experiment [5] and in [6] was above 100 µM in each case. The TGI in experiment [7], in [8], in experiment [9] and in experiment [10] was above 100 µM each time.

In the case of `C[C@@]12CCC(=O)C=C1CC[C@H]1C2=CC[C@]2(C)C1CC[C@@]2(C)O` (stereo partly drawn), the TGI in experiment [1], in experiment [2], in experiment [3], in experiment [4], in experiment [5] and in [6] was above 100 µM in each case. For the same compound, the TGI in experiment [7], in [8], in experiment [9] and in experiment [10] was above 100 µM each time.

In the case of `O=C1OC(O)C(Oc2ccc(Cl)cc2)=C1Cl` (stereo not drawn), the TGI in experiment [1], in experiment [2], in [3], in experiment [4], in experiment [5] and in experiment [6] was above 100 µM each time. Besides, the TGI in experiment [7], in experiment [8], in experiment [9] and in experiment [10] was above 100 µM each time.

On to `COc1ccc([N+](=O)[O-])c(S(=O)(=O)c2ccc(Cl)cc2)n1`, for which the GI50 in experiment [1] is 18.5 µM; in experiment [2], 2.51 µM; in experiment [3], 3.34 µM; in experiment [4] it was 3.05 µM; in experiment [5] it was 1.86 µM; in [6], 2 µM. In addition, the GI50 in experiment [7] is 3.59 µM; in [8], 3.39 µM; in experiment [9] it was 2.9 µM; in experiment [10], 16.6 µM. The TGI in [1] was 41.9 µM; in experiment [2], 7.18 µM; in experiment [3] it was 13.9 µM; in experiment [4], 10.1 µM; in experiment [5], 3.77 µM; in experiment [6], 6.17 µM. For the same compound, the TGI is above 100 µM in experiment [7], 12.3 µM in experiment [8], 9.33 µM in experiment [9] and 30.5 µM in [10].

For `CC(C)(C)c1ccc(C(O)c2ccc(C(C)(C)C)cc2)cc1`, the TGI in experiment [1] was 27.2 µM; in experiment [2], 29 µM; in experiment [3] it was 22.3 µM; in [4], 28.7 µM; in [5], 22 µM; in experiment [6], 25.2 µM. The TGI was determined as 39.2 µM in experiment [7], 31.5 µM in experiment [8], 24.5 µM in [9] and 30 µM in [10].

On to `CSc1nc2sc3cc(Cl)ccc3n2c(=N)c1C#N`, for which the GI50 in experiment [1] is 12.2 µM; in experiment [2] it was 6.15 µM; in experiment [3], 5.35 µM; in [4] it was above 54.7 µM; in experiment [5], 62.7 µM; in experiment [6] it was below 0.0468 µM. Moreover, the GI50 is 2.2 µM in [7], 15.2 µM in experiment [8], above 25.7 µM in experiment [9] and 45.4 µM in experiment [10]. Further, the TGI in [1] was above 100 µM; in experiment [2], 24 µM; in experiment [3] it was above 100 µM; in experiment [4], above 100 µM; in experiment [5] it was above 100 µM; in experiment [6], 4.77 µM. Further, the TGI in experiment [7] is above 23.6 µM; in experiment [8], above 100 µM; in experiment [9], above 100 µM; in [10], above 100 µM.

Regarding `CN(C)CC1(C)CC/C(=C\c2ccccc2)C1=O` (stereo not drawn), the TGI in experiment [1], in [2], in [3], in experiment [4], in experiment [5] and in experiment [6] was above 100 µM throughout. In addition, the TGI in experiment [7], in experiment [8], in experiment [9] and in experiment [10] was above 100 µM each time.

As to `CC12CCC[C@@](C)(C(=O)OC3OC(CO)C(O)C(O)C3O)[C@H]1CCC13CC4CC(OC4(CO)[C@H]1O)[C@@H]23` (stereo partly drawn), the TGI in experiment [1], in experiment [2], in experiment [3], in [4], in experiment [5] and in [6] was above 100 µM throughout. Besides, the TGI in experiment [7], in [8], in [9] and in experiment [10] was above 100 µM each time.

`O=C(/C=C\c1ccc(Cl)cc1Cl)c1cccs1`: the TGI in [1] was above 100 µM; in experiment [2], 34.6 µM; in experiment [3] it was 64.5 µM; in experiment [4] it was 35.1 µM; in experiment [5] it was 50.3 µM; in experiment [6], 69.1 µM. Further, the TGI in experiment [7] was above 100 µM; in experiment [8], 36.5 µM; in experiment [9], 23.5 µM; in [10] it was 56.2 µM.

Consider `NC1=N/C(=C2/CCNC(=O)c3[nH]c(Br)cc32)C(=O)N1`, for which the TGI in experiment [1] was above 100 µM; in experiment [2], above 61.4 µM; in experiment [3], above 100 µM; in experiment [4], above 100 µM; in [5], 32.5 µM and 17.4 µM; in [6], 63.8 µM and 81.5 µM. Besides, the TGI was above 52.6 µM in experiment [7]; 17.3 µM and 35.5 µM in experiment [8]; above 100 µM in experiment [9]; above 100 µM in experiment [10]. Further, the GI50 in experiment [3] is 27.2 µM and 67.7 µM; in experiment [5], 7.44 µM and 2.54 µM; in [8], 4.29 µM and 13 µM.

`NS(=O)(=O)c1ccc(CCN=C=S)cc1`: the GI50 was 2.03 µM in experiment [1]; 1.71 µM in experiment [2]; 2.54 µM in experiment [3]; 2.09 µM in experiment [4]; 1.37 µM in experiment [5]; 1.33 µM in experiment [6]. Moreover, the GI50 is 3.05 µM in experiment [7], 1.87 µM in experiment [8], 1.75 µM in experiment [9] and 3.23 µM in [10]. For the same compound, the TGI came out at 4.85 µM in [1]; 3.34 µM in experiment [2]; 6.66 µM in [3]; 4.51 µM in experiment [4]; 3.57 µM in experiment [5]; 3.36 µM in experiment [6]. Further, the TGI in [7] was above 100 µM; in [8], 3.85 µM; in experiment [9], 3.45 µM; in experiment [10], 10.1 µM.

Turning to `COC(=O)CCC/C=C\C[C@H]1C=CC(=O)/C1=C/C[C@@H](O)C/C=C\CC(F)(F)F`, the GI50 in experiment [1] is 2.91 µM; in experiment [2], 1.85 µM; in experiment [3], 1.89 µM; in experiment [4], 1.5 µM; in experiment [5], 1.06 µM; in [6], 3.27 µM. In addition, the GI50 in [7] is 0.773 µM; in experiment [8], 3.24 µM; in experiment [9], 1.26 µM; in experiment [10], 1.89 µM. The TGI in experiment [1] stood at 8.73 µM; in [2] it was 3.57 µM; in experiment [3] it was 4.49 µM; in [4] it was 4.39 µM; in experiment [5], 2.57 µM; in [6], 7.88 µM. Further, the TGI in [7] was 4.22 µM; in [8] it was 9.09 µM; in experiment [9] it was 2.75 µM; in experiment [10], 5.16 µM.

With `O=C(Nc1c(O)[nH]c(=S)[nH]c1=O)c1ccc2ccccc2n1`, the TGI in [1], in experiment [2], in experiment [3], in experiment [4], in [5] and in experiment [6] was above 100 µM each time. Also, the TGI in experiment [7], in [8], in experiment [9] and in experiment [10] was above 100 µM each time.

Take `CCOC(=O)/C(=C/c1ccc(C#N)cc1)N(CC)CC`: the TGI in experiment [1], in experiment [2], in [3], in experiment [4], in experiment [5] and in [6] was above 100 µM in each case. For the same compound, the TGI in experiment [7], in experiment [8], in [9] and in experiment [10] was above 100 µM throughout.

These data come from PubChem BioAssay (NCI).
